# Counter-ions that a name gives are not always drawn. Like-named read-outs stand apart in the source and are kept apart here.
# What was measured:
# [1] = system: Pseudonomas aeruginosa (PA); assay: Inhibition zone on bacterial lawn on agar plate, daily sequential transfer of sample; type: cell-based
# Experimental: (§1) A matrix made of cotton gauze 75 mm wide, in accordance with the British Pharmacopoeia, was soaked in 0.5% chlorohexidine gluconate (CHXG) aqueous solution at 25°C and dried by forced hot air at 60°C in a continuous process. The antimicrobial activity of the product was tested on lawns of several bacteria: Staphylococcus aureus (SA), S. epidermidis (SE), Escherichia coli (EC) and Pseudonomas aeruginosa (PA), inoculated on agar plates, by placing a sample of about 2 cm^2 on the surface of the plate, and measurement of the inhibition zone after growth of the bacteria for 18 hours at 37°C. After 24 hours, the sample was passed sequentially to another inoculated agar plate and the inhibition zone measured. This daily transfer procedure continued up to the loss of growth-inhibiting activity.
# (§2) The data set forth in the Tables herein is presented as follows: a = no inhibition b = partial growth inhibition under matrix c = total growth inhibition under matrix d = growth inhibition beyond the matrix, but at less than 1 mm E x-y = growth inhibition in mm; x = minimum distance; y = maximum distance.
# [2] = system: Staphylococcus aureus (SA); assay: as above; type: cell-based; conditions: for Growth Inhibition SA: procedure of Example 1 (cotton gauze)
# Experimental: as §1, §2
# Escherichia coli (EC) = assay: as above; type: cell-based
# Experimental: as §1, with “The” for “A matrix made of cotton gauze 75 mm wide, in accordance with the British Pharmacopoeia, was soaked in 0.5% chlorohexidine gluconate (CHXG) aqueous solution at 25°C and dried by forced hot air at 60°C in a continuous process. The”
# as §2
# S. epidermidis (SE) = assay: as above; type: cell-based
# Experimental: as §1, with “The” for “A matrix made of cotton gauze 75 mm wide, in accordance with the British Pharmacopoeia, was soaked in 0.5% chlorohexidine gluconate (CHXG) aqueous solution at 25°C and dried by forced hot air at 60°C in a continuous process. The”
# as §2
# [3] = system: Staphylococcus aureus (SA); assay: as above; type: cell-based
# [4] = system: human immunodeficiency virus type I; conditions: aqueous solution, in 15 seconds; cited from earlier work
# [5] = system: Staphylococcus aureus (SA); assay: Inhibition zone on bacterial lawn on agar plate, daily sequential transfer of sample; type: cell-based; conditions: procedure of Example 1 (cotton gauze)
# Experimental: as §1, with “activity. The data set forth in the Tables herein is presented as follows: a = no inhibition b = partial growth inhibition under matrix c = total growth inhibition under matrix d = growth inhibition beyond the matrix, but at less than 1 mm E x-y = growth inhibition in mm; x = minimum distance; y = maximum distance.” for “activity.”
# [6] = in vivo; cited from earlier work
# [7] = Matrix Nylon, CHXH 0.1% or CHXG 1.0%, hydrochloride
# [8] = Matrix Polyethylene, CHXH 0.1% or CHXG 1.0%, hydrochloride
# [9] = Matrix Polypropylene, CHXH 0.1% or CHXG 1.0%, hydrochloride
# [10] = Matrix Nylon, CHXH 0.1% or CHXG 1.0%
# [11] = Matrix Cellular triacetate, CHXH 0.1% or CHXG 1.0%
# [12] = Matrix Polyethylene, CHXH 0.1% or CHXG 1.0%
# [13] = non-woven matrix (polyethylene, viscose and cotton), CHXG Concentration 2 %
# [14] = non-woven matrix (polyethylene, viscose and cotton), CHXG Concentration 5 %
# [15] = Matrix Polypropylene, CHXH 0.1% or CHXG 1.0%
molecule,measurement,setting,value
"N=C(NCCCCCCNC(=N)NC(=N)Nc1ccc(Cl)cc1)NC(=N)Nc1ccc(Cl)cc1 [CHXH, chlorohexidine hydrochloride]",Microorganism Growth Inhibition PA,[1],E 1-2 mm
same,Microorganism Growth Inhibition SA,[2],E 5-6 mm
same,Microorganism Growth Inhibition EC,Escherichia coli (EC),E 2-4 mm
same,Microorganism Growth Inhibition EC,Escherichia coli (EC); [7],E 2-3 mm
same,Microorganism Growth Inhibition EC,Escherichia coli (EC); [8],E 1-3 mm
same,Microorganism Growth Inhibition EC,Escherichia coli (EC); [9],E 1-3 mm
same,Microorganism Growth Inhibition SE,S. epidermidis (SE),E 3-4 mm
same,Microorganism Growth Inhibition SE,S. epidermidis (SE); [10],E 2-3 mm
same,Microorganism Growth Inhibition SE,S. epidermidis (SE); [8],E 2 mm
same,Microorganism Growth Inhibition SE,S. epidermidis (SE); [9],E 1-2 mm
same,Microorganism Growth Inhibition SA,[3]; [7],E 3-4 mm
same,Microorganism Growth Inhibition SA,[3]; [8],E 3-4 mm
same,Microorganism Growth Inhibition SA,[3]; [9],E 2-4 mm
[H]/N=C(\N/C(=N/[H])NCCCCCCNC(=N)NC(=N)Nc1ccc(Cl)cc1)Nc1ccc(Cl)cc1 [chlorhexidine],inactivation of human immunodeficiency virus type I,[4],100%
"CCCCCCCCCCCCCCCC[N+](C)(C)Cc1ccccc1.[Cl-] [Example 861, Benzyl dimethyl hexocylammonium chloride]",Growth Inhibition SA,[2]; Day 1,E 3-5 mm
same,Growth Inhibition SA,[2]; Day 2,E 3-4 mm
same,Growth Inhibition SA,[2]; Day 3,E 3-4 mm
same,Growth Inhibition SA,[2]; Day 4,E 2-3 mm
Septabicdidecyl dimethyl ammonium bromide [Example 868],Growth Inhibition SA,[2]; Day 1,E 5-6 mm
same,Growth Inhibition SA,[2]; Day 2,E 5-6 mm
same,Growth Inhibition SA,[2]; Day 3,E 4-5 mm
same,Growth Inhibition SA,[2]; Day 4,E 3-4 mm
"CCCCCCCCCCCCCCCC[n+]1ccccc1.[Cl-] [Example 844, Cetyl piridinium chloride]",Growth Inhibition SA,[2]; Day 1,E 3-4 mm
same,Growth Inhibition SA,[2]; Day 2,E 5-6 mm
same,Growth Inhibition SA,[2]; Day 3,E 3-4 mm
same,Growth Inhibition SA,[2]; Day 4,E 2-4 mm
"N=C(NCCCCCCNC(=N)NC(=N)Nc1ccc(Cl)cc1)NC(=N)Nc1ccc(Cl)cc1 [CHXG, chlorohexidine gluconate]",Microorganism Growth Inhibition PA,[1]; [11],E 1 mm
same,Microorganism Growth Inhibition PA,[1]; [10],"d (growth inhibition beyond the matrix, but at less than 1 mm)"
same,Microorganism Growth Inhibition PA,[1]; [12],E 1 mm
same,Microorganism Growth Inhibition PA,[1]; [13],"d (growth inhibition beyond the matrix, but at less than 1 mm)"
same,Microorganism Growth Inhibition PA,[1]; [14],E 1-2 mm
same,Growth Inhibition SA,[2]; Day 1,E 4-5 mm
same,Growth Inhibition SA,[2]; Day 2,E 3-4 mm
same,Growth Inhibition SA,[2]; Day 3,E 2-3 mm
same,Growth Inhibition SA,[2]; Day 4,E 2-3 mm
same,Microorganism Growth Inhibition EC,Escherichia coli (EC); [11],E 3-4 mm
same,Microorganism Growth Inhibition EC,Escherichia coli (EC); [10],E 2-4 mm
same,Microorganism Growth Inhibition EC,Escherichia coli (EC); [12],E 2-3 mm
same,Microorganism Growth Inhibition EC,Escherichia coli (EC); [15],E 2-4 mm
same,Microorganism Growth Inhibition EC,Escherichia coli (EC); [13],E 2-3 mm
same,Microorganism Growth Inhibition EC,Escherichia coli (EC); [14],E 3-4 mm
same,Microorganism Growth Inhibition SE,S. epidermidis (SE); [11],E 4 mm
same,Microorganism Growth Inhibition SE,S. epidermidis (SE); [12],E 3 mm
same,Microorganism Growth Inhibition SE,S. epidermidis (SE); [15],E 2-3 mm
same,Microorganism Growth Inhibition SE,S. epidermidis (SE); [13],E 3-5 mm
same,Microorganism Growth Inhibition SE,S. epidermidis (SE); [14],E 4-5 mm
same,Microorganism Growth Inhibition SA,[3]; [11],E 4-5 mm
same,Microorganism Growth Inhibition SA,[3]; [10],E 3-5 mm
same,Microorganism Growth Inhibition SA,[3]; [12],E 3-5 mm
same,Microorganism Growth Inhibition SA,[3]; [15],E 2-5 mm
same,Microorganism Growth Inhibition SA,[3]; [13],E 5-7 mm
same,Microorganism Growth Inhibition SA,[3]; [14],E 4-5 mm
Bacitracin [Example 846],Growth Inhibition SA,[5]; Day 1,E 4-6 mm
same,Growth Inhibition SA,[5]; Day 2,E 1-3 mm
"Clc1nc(Cl)nc(Cl)n1 [cyanuric chloric linking group, cyanuric chloride]",LD50,[6],18 mg/kg

# From patent EP0852148B1, “Products having anti-microbial activity” (SION MICROTEC LTD., priority 1997, dated 1998)
